Reference: patent US10202360B2 (CELGENE QUANTICEL RESEARCH, INC., priority 2016, dated 2019)

Target: CREBBP (Homo sapiens (Human), UniProt Q92793)
Test: In vitro enzyme inhibition assay - CREBBP inhibition (AlphaScreen, biotinylated H4-tetraacetyl peptide)
Format: binding
In short: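 Displacement of 20 nM biotinylated tetraacetyl-H4 peptide from 50 nM E. coli-expressed His-CREBBP, measured by AlphaScreen after bead equilibration for 2 h.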

[1] = Table 28, AlphaScreen, H4-tetraacetyl peptide

Sequence of CREBBP (Q92793 1081-1197): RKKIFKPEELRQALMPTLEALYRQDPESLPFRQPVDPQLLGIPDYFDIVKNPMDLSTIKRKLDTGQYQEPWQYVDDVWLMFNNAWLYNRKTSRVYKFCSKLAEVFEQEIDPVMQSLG

Structure (SMILES)	IC50 [1] [nM]	IC50 (Table 29) [nM]
CCCCS(=O)(=O)Nc1nc(Oc2c(F)cccc2Cl)nc(-c2cc(C)c(=O)n(C)c2)n1 [Example 190, Butane-1-sulfonic acid [4-(2-chloro-6-fluoro-phenoxy)-6-(1,5-dimethyl-6-oxo-1,6-dihydro-pyridin-3-yl)-[1,3,5]triazin-2-yl]-amide]	< 500	
Cc1cccc(C#N)c1Oc1nc(N[C@H](C)c2ccccc2)cc(-c2ccc(=O)n(C)c2)n1 [Example 318, (R)-3-Methyl-2-[4-(1-methyl-6-oxo-1,6-dihydro-pyridin-3-yl)-6-(1-phenyl-ethylamino)-pyrimidin-2-yloxy]-benzonitrile]	< 500	
CC[C@H](C)S(=O)(=O)Nc1cc(-c2ccc(=O)n(C)c2)nc(Oc2c(F)ccc(C)c2Cl)n1 [Example 224, (2S)-Butane-2-sulfonic acid [2-(2-chloro-6-fluoro-3-methyl-phenoxy)-6-(1-methyl-6-oxo-1,6-dihydro-pyridin-3-yl)-pyrimidin-4 yl]-amide]	< 500	
CCCCS(=O)(=O)Nc1cc(-c2cc(C)c(=O)n(C)c2)nc(Oc2cccc3c2ccn3C)n1 [Example 75, N-(6-(1,5-dimethyl-6-oxo-1,6-dihydropyridin-3-yl)-2-((1-methyl-1H-indol-4-yl)oxy)pyrimidin-4-yl)butane-1-sulfonamide]	< 500	
CC[C@H](C)S(=O)(=O)Nc1cc(-c2ccc(=O)n(C)c2)nc(Oc2c(F)cccc2Cl)n1 [Example 206, Butane-(2S)-sulfonic acid [2-(2-chloro-6-fluoro-phenoxy)-6-(1-methyl-6-oxo-1,6-dihydro-pyridin-3-yl)-pyrimidin-4-yl]-amide]	< 500	
CCC(F)S(=O)(=O)Nc1cc(-c2cc(C)c(=O)n(C)c2)nc(Oc2c(C)cccc2F)n1 (centres unmarked) [Example 169, 1-Fluoro-propane-1-sulfonic acid [6-(1,5-dimethyl-6-oxo-1,6-dihydro-pyridin-3-yl)-2-(2-fluoro-6-methyl-phenoxy)-pyrimidin-4-yl]-amide]	< 500	
CCCS(=O)(=O)Nc1nc(Oc2c(F)cccc2Cl)nc(-c2ccc(=O)n(C)c2)n1 [Example 181, Propane-1-sulfonic acid [4-(2-chloro-6-fluoro-phenoxy)-6-(1-methyl-6-oxo-1,6-dihydro-pyridin-3-yl)-[1,3,5]triazin-2-yl]-amide]	< 500	
Cc1ccc(C#N)cc1Oc1nc(NS(=O)(=O)C(C)C)cc(-c2cc(C)c(=O)n(C)c2)n1 [Example 7, Propane-2-sulfonic acid [2-(5-cyano-2-methyl-phenoxy)-6-(1,5-dimethyl-6-oxo-1,6-dihydro-pyridin-3-yl)-pyrimidin-4-yl]-amide]	< 500	
Cc1cccc(F)c1Oc1nc(NCC2CCCc3ccccc32)cc(-c2ccc(=O)n(C)c2)n1 (centres unmarked) [Example 286, 5-(2-(2-fluoro-6-methylphenoxy)-6-(((1,2,3,4-tetrahydronaphthalen-1-yl)methyl)amino)pyrimidin-4-yl)-1-methylpyridin-2(1H)-one]	< 500	
CCC(C)S(=O)(=O)Nc1cc(-c2ccc(=O)n(C)c2)nc(Oc2c(C)ccc(F)c2F)n1 (centres unmarked) [Example 349, N-(2-(2,3-difluoro-6-methylphenoxy)-6-(1-methyl-6-oxo-1,6-dihydropyridin-3-yl)pyrimidin-4-yl)butane-2-sulfonamide]	< 500	
Cc1cccc(F)c1Oc1nc(NS(=O)(=O)C(C)C)cc(-c2ccc(=O)n(C)c2)n1 [Example 119, Propane-2-sulfonic acid [2-(2-fluoro-6-methyl-phenoxy)-6-(1-methyl-6-oxo-1,6-dihydro-pyridin-3-yl)-pyrimidin-4-yl]-amide]	< 500	
CCCCS(=O)(=O)Nc1cc(-c2ccc(=O)n(C)c2)nc(Oc2c(F)ccc(C)c2F)n1 [Example 257, Butane-1-sulfonic acid [2-(2,6-difluoro-3-methyl-phenoxy)-6-(1-methyl-6-oxo-1,6-dihydro-pyridin-3-yl)-pyrimidin-4-yl]-amide]	< 500	
CCS(=O)(=O)Nc1nc(Oc2c(C)cccc2F)nc(-c2cc(C)c(=O)n(C)c2)n1 [Example 171, Ethanesulfonic acid [4-(1,5-dimethyl-6-oxo-1,6-dihydro-pyridin-3-yl)-6-(2-fluoro-6-methyl-phenoxy)-[1,3,5]triazin-2-yl]-amide]	< 500	
COCCn1cc(-c2cc(NS(=O)(=O)C(C)C)nc(Oc3ccc(F)cc3F)n2)cc(C)c1=O [Example 53, Propane-2-sulfonic acid {2-(2,4-difluoro-phenoxy)-6-[1-(2-methoxy-ethyl)-5-methyl-6-oxo-1,6-dihydro-pyridin-3-yl]-pyrimidin-4-yl}-amide]	500 to 5000	
CCCCS(=O)(=O)Nc1cc(-c2cc(Cl)c(=O)n(C)c2)nc(Oc2c(C)cccc2F)n1 [Example 122, Butane-1-sulfonic acid [6-(5-chloro-1-methyl-6-oxo-1,6-dihydro-pyridin-3-yl)-2-(2-fluoro-6-methyl-phenoxy)-pyrimidin-4-yl]-amide]	< 500	
Cc1cccc(C)c1Oc1nc(NS(=O)(=O)C(C)C)cc(-c2cc(C)c(=O)n(C)c2)n1 [Example 71, N-(6-(1,5-dimethyl-6-oxo-1,6-dihydropyridin-3-yl)-2-(2,6-dimethylphenoxy)pyrimidin-4-yl)propane-2-sulfonamide]	< 500	

Structure (SMILES)	IC50 [1] [nM]	IC50 (Table 29) [nM]
Cc1sc2c(c1C)C(c1ccc(Cl)cc1)=N[C@@H](CC(=O)OC(C)(C)C)c1nnc(C)n1-2 [JQ-1, tert-butyl (S)-2-(4-(4-chlorophenyl)-2,3,9-trimethyl-6H-thieno[3,2-f][1,2,4]triazolo[4,3-a][1,4]diazepin-6-yl)acetate, reference compound]		> 5000
Cc1cc(-c2cc(NS(=O)(=O)C(C)C)nc(Oc3ccc(F)cc3F)n2)cn(CC2CCC2)c1=O [Example 50, Propane-2-sulfonic acid [6-(1-cyclobutylmethyl-5-methyl-6-oxo-1,6-dihydro-pyridin-3-yl)-2-(2,4-difluoro-phenoxy)-pyrimidin-4-yl]-amide]	> 5000	
CCCCS(=O)(=O)Nc1cc(-c2ccc(=O)n(C)c2)nc(Oc2c(F)cccc2Cl)n1 [Example 139, Butane-1-sulfonic acid [2-(2-chloro-6-fluoro-phenoxy)-6-(1-methyl-6-oxo-1,6-dihydro-pyridin-3-yl)-pyrimidin-4-yl]-amide]	< 500	
CCC(C)S(=O)(=O)Nc1cc(-c2ccc(=O)n(C)c2)nc(Oc2c(C)cc(F)cc2F)n1 (centres unmarked) [Example 345, N-(2-(2,4-difluoro-6-methylphenoxy)-6-(1-methyl-6-oxo-1,6-dihydropyridin-3-yl)pyrimidin-4-yl)butane-2-sulfonamide]	< 500	
CCCCS(=O)(=O)Nc1cc(-c2ccc(=O)n(C)c2)nc(-c2ccccc2OC)n1 [Example 197, Butane-1-sulfonic acid [2-(2-methoxy-phenyl)-6-(1-methyl-6-oxo-1,6-dihydro-pyridin-3-yl)-pyrimidin-4-yl]-amide]	< 500	
Cc1cccc(F)c1Oc1nc(-c2cc(C)c(=O)n(C)c2)cc(N(C)Cc2ccccc2)n1 [Example 297, 5-[6-(Benzyl-methyl-amino)-2-(2-fluoro-6-methyl-phenoxy)-pyrimidin-4-yl]-1,3-dimethyl-1H-pyridin-2-one]	< 500	
CCCCS(=O)(=O)Nc1cc(-c2cc(C)c(=O)n(C)c2)nc(OC2CCCCC2)n1 [Example 249, Butane-1-sulfonic acid [2-cyclohexyloxy-6-(1,5-dimethyl-6-oxo-1,6-dihydro-pyridin-3-yl)-pyrimidin-4-yl]-amide]	< 500	
CCS(=O)(=O)Nc1cc(-c2ccc(=O)n(C)c2)nc(Oc2c(C)cc(Cl)cc2Cl)n1 [Example 30, Ethanesulfonic acid [2-(2,4-dichloro-6-methyl-phenoxy)-6-(1-methyl-6-oxo-1,6-dihydro-pyridin-3-yl)-pyrimidin-4-yl]-amide]	< 500	
CCCCS(=O)(=O)Nc1cc(-c2cc(C)c(=O)n(C)c2)nc(Oc2cc(C)ccc2C#N)n1 [Example 36, Butane-1-sulfonic acid [2-(2-cyano-5-methyl-phenoxy)-6-(1,5-dimethyl-6-oxo-1,6-dihydro-pyridin-3-yl)-pyrimidin-4-yl]-amide]	< 500	
Cc1cc(-c2cc(NS(=O)(=O)C(C)C)nc(Oc3c(F)cccc3Cl)n2)cn(C)c1=O [Example 142, Propane-2-sulfonic acid [2-(2-chloro-6-fluoro-phenoxy)-6-(1,5-dimethyl-6-oxo-1,6-dihydro-pyridin-3-yl)-pyrimidin-4-yl]-amide]	< 500	
Cc1cccc(F)c1Oc1nc(NS(=O)(=O)C(C)C)nc(-c2cc(C)c(=O)n(C)c2)n1 [Example 172, Propane-2-sulfonic acid [4-(1,5-dimethyl-6-oxo-1,6-dihydro-pyridin-3-yl)-6-(2-fluoro-6-methyl-phenoxy)-[1,3,5]triazin-2-yl]-amide]	< 500	
Cc1cccc(C#N)c1Oc1nc(NCc2ccccc2)cc(-c2ccc(=O)n(C)c2)n1 [Example 320, 2-[4-Benzylamino-6-(1-methyl-6-oxo-1,6-dihydro-pyridin-3-yl)-pyrimidin-2-yloxy]-3-methyl-benzonitrile]	< 500	
CCCC(C)Nc1cc(-c2ccc(=O)n(C)c2)nc(OC)n1 (centres unmarked) [Example 326, 5-[2-Methoxy-6-(1-methyl-butylamino)-pyrimidin-4-yl]-1-methyl-1H-pyridin-2-one]	500 to 5000	
CCCCn1cc(-c2cc(NS(=O)(=O)C(C)C)nc(Oc3ccc(F)cc3F)n2)cc(C)c1=O [Example 46, Propane-2-sulfonic acid [6-(1-butyl-5-methyl-6-oxo-1,6-dihydro-pyridin-3-yl)-2-(2,4-difluoro-phenoxy)-pyrimidin-4-yl]-amide]	> 5000	
Cc1cc(-c2cc(NS(=O)(=O)C(C)C)nc(Oc3cccc4occc34)n2)cn(C)c1=O [Example 59, N-(2-(benzofuran-4-yloxy)-6-(1,5-dimethyl-6-oxo-1,6-dihydropyridin-3-yl)pyrimidin-4-yl)propane-2-sulfonamide]	< 500	
CCCCS(=O)(=O)Nc1cc(-c2cn(C)c(=O)c3ccccc23)nc(Oc2c(C)cccc2C)n1 [Example 97, Butane-1-sulfonic acid [2-(2,6-dimethyl-phenoxy)-6-(2-methyl-1-oxo-1,2-dihydro-isoquinolin-4-yl)-pyrimidin-4-yl]-amide]	500 to 5000	
